Measured values reported in ChEMBL document CHEMBL5576039, “Novel naphthoquinone-1H-1,2,3-triazole hybrids: Design, synthesis and evaluation as inductors of ROS-mediated apoptosis in the MCF-7 cells” (Bioorg Med Chem, 2024).
Activity calls are given as the source filed them. The rule behind the calls is not given here.

Assays:
MCF7 [1] = experiment: Cytotoxicity against human MCF7 cells assessed as reduction in cell viability incubated for 24 hrs by MTT assay; type: functional, cell-based; settings: MCF7, 24 h
MCF7 [2] = experiment: Cytotoxicity against human MCF7 cells assessed as reduction in cell viability at 50 uM incubated for 24 hrs by MTT assay; type: functional, cell-based
MCF7 [3] = experiment: Cytotoxicity against human MCF7 cells assessed as reduction in cell viability at 12 uM incubated for 24 hrs by MTT assay; type: functional, cell-based
MCF-10A [4] = experiment: Induction of apoptotic cell death in human MCF-10A cells assessed as increase in AnnexinV-positive cells at 1 uM incubated for 2 hrs by AnnexinV/7-AAD staining based flow cytometry; type: toxicity
MDA-MB-231 [5] = experiment: Induction of apoptotic cell death in human MDA-MB-231 cells assessed as increase in AnnexinV-positive cells at 1 uM incubated for 2 hrs by AnnexinV/7-AAD staining based flow cytometry; type: functional
MCF7 [6] = experiment: Induction of apoptotic cell death in human MCF7 cells assessed as increase in AnnexinV-positive cells at 1 uM incubated for 2 hrs by AnnexinV/7-AAD staining based flow cytometry; type: functional
MCF7 [7] = experiment: Induction of apoptotic cell death in human MCF7 cells incubated for 12 to 24 hrs by AnnexinV/7-AAD staining based flow cytometry; type: functional; settings: dose 6-12 µM, time 12-24 hrs
MCF7 [8] = experiment: Activation of AMPK in human MCF7 cells assessed as increase in ACC phosphorylation at Ser79 residue at 12 uM incubated for 2 hrs by western blot analysis; type: cell-based; settings: filed as activator
MDA-MB-231 [9] = experiment: Activation of AMPK in human MDA-MB-231 cells assessed as reduction in S6 phosphorylation at Ser235/236 residue at 6 to 12 uM incubated for 2 hrs by western blot analysis; type: cell-based; settings: filed as activator, dose 6-12 µM
MDA-MB-231 [10] = experiment: Activation of AMPK in human MDA-MB-231 cells assessed as increase in ACC phosphorylation at Ser79 residue at 12 uM incubated for 2 hrs by western blot analysis; type: cell-based; settings: filed as activator
MCF7 [11] = experiment: Induction of apoptotic cell death in human MCF7 cells at 6 to 12 uM by AnnexinV/7-AAD staining based flow cytometry; type: functional; settings: dose 6-12 µM, time 12-24 hrs, TDE = time-dependent effect
MDA-MB-231 [12] = experiment: Increase in ROS production in human MDA-MB-231 cells assessed as increase in ROS-positive cells at 6 to 12 uM incubated for 2 to 24 hrs by DCFDA/7-AAD staining based flow cytometry; type: functional, cell-based; settings: dose 6-12 µM, time 2-24 hrs
MCF7 [13] = experiment: Activation of AMPK in human MCF7 cells assessed as reduction in S6 phosphorylation at Ser235/236 residue at 6 to 12 uM incubated for 2 hrs by western blot analysis; type: cell-based; settings: filed as activator, dose 6-12 µM
MCF-10A [14] = experiment: Cytotoxicity against human MCF-10A cells assessed as reduction in cell viability incubated for 24 hrs by MTT assay; type: toxicity, cell-based
MCF-10A [15] = experiment: Induction of apoptotic cell death in human MCF-10A cells assessed as increase in AnnexinV-positive cells at 12 uM incubated for 2 hrs by AnnexinV/7-AAD staining based flow cytometry; type: toxicity
MCF7 [16] = experiment: Increase in ROS production in human MCF7 cells assessed as increase in ROS-positive cells at 6 to 12 uM incubated for 4 hrs by DCFDA/7-AAD staining based flow cytometry; type: functional, cell-based; settings: dose 6-12 µM
MCF7 [17] = experiment: Cytotoxicity against human MCF7 cells assessed as reduction in cell viability incubated for 2 to 24 hrs by MTT assay; type: functional, cell-based; settings: dose 6-12 µM, time 2-24 hrs
MDA-MB-231 [18] = experiment: Activation of AMPK in human MDA-MB-231 cells assessed as increase in AMPK phosphorylation at Thr172 residue at 12 uM incubated for 2 hrs by western blot analysis; type: cell-based; settings: filed as activator
MCF7 [19] = experiment: Activation of AMPK in human MCF7 cells assessed as increase in AMPK phosphorylation at Thr172 residue at 12 uM incubated for 2 hrs by western blot analysis; type: cell-based; settings: filed as activator
MCF7 [20] = experiment: Induction of cell death in human MCF7 cells assessed as reduction in number of live cells at 12 uM incubated for 4 hrs by AnnexinV/7-AAD staining based flow cytometry; type: functional
MCF7 [21] = experiment: Cytotoxicity against human MCF7 cells assessed as reduction in cell viability at 6 to 12 uM by MTT assay; type: functional, cell-based; settings: dose 6-12 µM, time 2-24 hrs, TDE = time-dependent effect
MCF7 [22] = experiment: Increase in ROS production in human MCF7 cells assessed as increase in ROS-positive cells at 6 to 12 uM incubated for 2 hrs by DCFDA/7-AAD staining based flow cytometry; type: functional, cell-based; settings: dose 6-12 µM
MDA-MB-231 [23] = experiment: Cytotoxicity against human MDA-MB-231 cells assessed as reduction in cell viability incubated for 24 hrs by MTT assay; type: functional, cell-based; settings: MDA-MB-231, 24 h
MCF7 [24] = experiment: Cytotoxicity against human MCF7 cells assessed as reduction in cell viability at 6 uM incubated for 24 hrs by MTT assay; type: functional, cell-based
MCF7 [25] = experiment: Induction of cell death in human MCF7 cells assessed as proportion of live cells at 6 uM incubated for 12 hrs by AnnexinV/7-AAD staining based flow cytometry; type: functional
MDA-MB-231 [26] = experiment: Induction of apoptotic cell death in human MDA-MB-231 cells assessed as increase in AnnexinV-positive cells at 3 to 12 uM incubated for 2 hrs by AnnexinV/7-AAD staining based flow cytometry; type: functional; settings: dose 3-12 µM
MCF7 [27] = experiment: Induction of cell death in human MCF7 cells assessed as proportion of live cells at 12 uM incubated for 12 hrs by AnnexinV/7-AAD staining based flow cytometry; type: functional
MCF7 [28] = experiment: Activation of AMPK in human MCF7 cells assessed as reduction in mTOR phosphorylation at Ser2448 residue at 6 to 12 uM incubated for 2 hrs by western blot analysis; type: cell-based; settings: filed as activator, dose 6-12 µM
MCF7 [29] = experiment: Induction of apoptotic cell death in human MCF7 cells assessed as increase in AnnexinV-positive cells at 3 uM incubated for 2 hrs by AnnexinV/7-AAD staining based flow cytometry; type: functional
MDA-MB-231 [30] = experiment: Activation of AMPK in human MDA-MB-231 cells assessed as reduction in p70S6K phosphorylation at Thr421/Ser424 residue at 6 to 12 uM incubated for 2 hrs by western blot analysis; type: cell-based; settings: filed as activator, dose 6-12 µM

CC(C)(C)c1ccc(-n2cc(CNC3=CC(=O)c4ccccc4C3=O)nn2)cc1
IC50 (MCF7 [1]): 21.2 µM

CC(C)=CC1=C(OCc2cn(C(C3=C(C)C(=O)c4ccccc4C3=O)c3ccc(Cl)cc3)nn2)C(=O)c2ccccc2C1=O (stereo unspecified)
Activity (MCF7 [2]): inactive

CC1=C(Cn2cc(CNC3=CC(=O)c4ccccc4C3=O)nn2)C(=O)c2ccccc2C1=O
Activity (MCF7 [3]): Active

CC1=C(C(c2ccc(Cl)cc2)n2cc(CNC3=CC(=O)c4ccccc4C3=O)nn2)C(=O)c2ccccc2C1=O (stereo unspecified)
Activity (MCF7 [2]): inactive

CC(C)=CCC1=C(OCc2cn(C(C3=C(C)C(=O)c4ccccc4C3=O)c3ccc(Br)cc3)nn2)C(=O)c2ccccc2C1=O (stereo unspecified)
Activity (MCF7 [2]): inactive

CC(C)=CCC1=C(OCc2cn(CC3=C(C)C(=O)c4ccccc4C3=O)nn2)C(=O)c2ccccc2C1=O
Activity (MCF7 [2]): inactive

CC1=C(C(C)n2cc(CNC3=CC(=O)c4ccccc4C3=O)nn2)C(=O)c2ccccc2C1=O (stereo unspecified)
Activity (MCF7 [2]): inactive

COc1cccc2c1C(=O)c1c(O)c3c(c(O)c1C2=O)C[C@@](O)(C(=O)CO)C[C@@H]3O[C@H]1C[C@H](N)[C@H](O)[C@H](C)O1 [DOXORUBICIN]
Activity (MCF-10A [4]): Toxic
Activity (MDA-MB-231 [5]): Active
Activity (MCF7 [6]): inactive

CC(C)=CC1=C(OCc2cn(C(C3=C(C)C(=O)c4ccccc4C3=O)c3ccccc3)nn2)C(=O)c2ccccc2C1=O (stereo unspecified)
Activity (MCF7 [3]): Active

O=C1C=C(NCc2cn(-c3ccc(C(F)(F)F)cc3)nn2)C(=O)c2ccccc21
IC50 (MCF7 [1]): 10.4 µM

CC(C)=CCC1=C(OCc2cn(C(C3=C(C)C(=O)c4ccccc4C3=O)c3ccccc3)nn2)C(=O)c2ccccc2C1=O (stereo unspecified)
Activity (MCF7 [3]): Active

CC(C)=CC1=C(OCc2cn(CC3=C(C)C(=O)c4ccccc4C3=O)nn2)C(=O)c2ccccc2C1=O
Activity (MCF7 [7]): Dose-Dependent Effect
Activity (MCF7 [3]): Active
Activity (MCF7 [8]): Active
Activity (MDA-MB-231 [9]): Active
Activity (MDA-MB-231 [10]): Active
Activity (MCF7 [11]): Tde
Activity (MDA-MB-231 [12]): inactive
Activity (MCF7 [13]): Active
Activity (MCF-10A [14]): Non-Toxic
Activity (MCF-10A [15]): Non-Toxic
Activity (MCF7 [16]): inactive
Activity (MCF7 [17]): Dose-Dependent Effect
Activity (MDA-MB-231 [18]): Active
Activity (MCF7 [19]): Active
Activity (MCF7 [20]): Active
IC50 (MCF7 [1]): 4.4 µM
Activity (MCF7 [21]): Tde
Activity (MCF7 [22]): Active
IC50 (MDA-MB-231 [23]): 11.1 µM
Activity (MCF7 [24]): Active
Activity (MCF7 [25]): <70%
Activity (MDA-MB-231 [26]): inactive
Activity (MCF7 [27]): <90%
Activity (MCF7 [28]): Active
Activity (MCF7 [29]): Active
Activity (MDA-MB-231 [30]): Active

CC1=C(C(c2ccc(Br)cc2)n2cc(CNC3=CC(=O)c4ccccc4C3=O)nn2)C(=O)c2ccccc2C1=O (stereo unspecified)
Activity (MCF7 [2]): inactive

CC(C)=CCC1=C(OCc2cn(C(C3=C(C)C(=O)c4ccccc4C3=O)c3ccc(F)cc3)nn2)C(=O)c2ccccc2C1=O (stereo unspecified)
Activity (MCF7 [2]): inactive

CC(C)=CC1=C(OCc2cn(C(C3=C(C)C(=O)c4ccccc4C3=O)c3ccc(Br)cc3)nn2)C(=O)c2ccccc2C1=O (stereo unspecified)
Activity (MCF7 [2]): inactive

CCc1ccc(-n2cc(CCNC3=C(C)C(=O)c4ccccc4C3=O)nn2)cc1
IC50 (MCF7 [1]): 8.73 µM

CC(C)=CCC1=C(OCc2cn(C(C)C3=C(C)C(=O)c4ccccc4C3=O)nn2)C(=O)c2ccccc2C1=O (stereo unspecified)
Activity (MCF7 [2]): inactive

CC(C)=CC1=C(OCc2cn(C(C)C3=C(C)C(=O)c4ccccc4C3=O)nn2)C(=O)c2ccccc2C1=O (stereo unspecified)
Activity (MCF7 [7]): Dose-Dependent Effect
Activity (MCF7 [3]): Active
Activity (MCF7 [8]): Active
Activity (MDA-MB-231 [9]): Active
Activity (MDA-MB-231 [10]): Active
Activity (MCF7 [11]): Tde
Activity (MDA-MB-231 [12]): inactive
Activity (MCF7 [13]): Active
Activity (MCF-10A [14]): Non-Toxic
Activity (MCF-10A [15]): Toxic
Activity (MCF7 [17]): Dose-Dependent Effect
Activity (MDA-MB-231 [18]): Active
Activity (MCF7 [19]): Active
Activity (MCF7 [20]): Active
IC50 (MCF7 [1]): 4.3 µM
Activity (MCF7 [21]): Tde
Activity (MCF7 [22]): Active
IC50 (MDA-MB-231 [23]): 9.2 µM
Activity (MCF7 [24]): Active
Activity (MCF7 [25]): <75%
Activity (MDA-MB-231 [26]): inactive
Activity (MCF7 [27]): <95%
Activity (MCF7 [28]): Active
Activity (MDA-MB-231 [30]): Active

CC1=C(C(c2ccccc2)n2cc(CNC3=CC(=O)c4ccccc4C3=O)nn2)C(=O)c2ccccc2C1=O (stereo unspecified)
Activity (MCF7 [2]): inactive

CC(C)=CCC1=C(OCc2cn(C(C3=C(C)C(=O)c4ccccc4C3=O)c3ccc(Cl)cc3)nn2)C(=O)c2ccccc2C1=O (stereo unspecified)
Activity (MCF7 [2]): inactive

CC1=C(C(c2ccc(F)cc2)n2cc(CNC3=CC(=O)c4ccccc4C3=O)nn2)C(=O)c2ccccc2C1=O (stereo unspecified)
Activity (MCF7 [2]): inactive
